# Assay results reported in US5543312A, “Pastuerella haemolytica glycoprotease gene and the purified enzyme” (priority 1991, dated 1996).
# Columns and labels:
# [1] = biological target: P. haemolytica A1 glycoprotease (Mannheimia haemolytica, UniProt P36175); test: biochemical; settings: for Restoration of protease activity by addition of divalent metal ion: after EDTA treatment and dialysis of the enzyme; for Increase of activity by addition of divalent metal ion: native enzyme; for Inhibition of the glycoprotease by anions and acidic amino acids: millimolar concentrations
# Sequence of P. haemolytica A1 glycoprotease (P36175 whole entry): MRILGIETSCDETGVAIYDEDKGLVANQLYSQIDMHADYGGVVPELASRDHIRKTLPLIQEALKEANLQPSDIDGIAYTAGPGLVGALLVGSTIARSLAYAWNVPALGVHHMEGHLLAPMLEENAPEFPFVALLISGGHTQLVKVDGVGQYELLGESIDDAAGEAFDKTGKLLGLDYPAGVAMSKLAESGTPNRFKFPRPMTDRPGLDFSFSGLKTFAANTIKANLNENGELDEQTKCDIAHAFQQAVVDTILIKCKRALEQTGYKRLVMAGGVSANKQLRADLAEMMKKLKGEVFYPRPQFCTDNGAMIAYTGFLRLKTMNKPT
# [2] = biological target: P. haemolytica A1 protease (Mannheimia haemolytica, UniProt P36175); type: biochemical; settings: SDS-PAGE and Coomassie blue staining
# Sequence of P. haemolytica A1 protease (P36175 whole entry, looked up): as the sequence (P36175 whole entry) above
# [3] = system: P. haemolytica glycoprotease; test: Cleavage of cell surface antigens of surface-125I-iodinated KG1a cells, immunoprecipitation and SDS-PAGE; type: cell-based
# Description: In our previous work, we have concentrated on the cleavage of human erythrocyte glycophorin A by the P. haemolytica glycoprotease Udoh et al. 1986. Univ. of Guelph; Abdullah et al. 1988. Proc. Canad. Fed. Biol. Socs.; Abdullah et al. 1990. Biochem. Soc. Trans. This substrate is well-characterized erythrocyte surface O-sialoglycoprotein and is readily available for biochemical analysis. However, it is clear that the physiological targets of this enzyme are not erthrocyte antigens but are probably O-sialoglycoproteins on the surfaces of leukocytes or endothelial cells. SDS-PAGE analysis of immunoprecipitations performed with specific monoclonal antibodies on lysates of surface-^125 I-iodinated KG1a cells, a primitive myeloid/T-lymphois stem cell line Koeffler et al. 1977. Science 200, have shown that the O-sialoglycoprotein cell surface antigens CD34 Civin et al. 1989. Leucocyte Typing IV, Oxford Univ. Press. CD43/leucosialin Killeen et al. 1987. EMBO J.; Pallant et al. 1989. PNAS, CD44/lyaluronic acid receptor Stamenkovic et al. 1989. Cell; Aruffo et al. 1990. Cell and CD45/leucocyte common antigen Thomas et al. 1989. Annu. REv. Immunol.; Pulido et al. 1989. J. Immunol. are all cleaved by the glycoprotease. Although the glycoprotease-sensitive structures contain some N-linked glycans they are all extensively glycosylated with O-linked carbohydrates. […]
# [4] = pH 7.4, read-out: Activity (% of enzyme activity in the absence of any inhibitor)
compound,measurement,setting,value
[Fe+2] [Fe^2+],Restoration of protease activity by addition of divalent metal ion,[1],failed to restore
same,Increase of activity by addition of divalent metal ion,[1],failed to increase
"c1cnc2c(c1)ccc1cccnc12 [1,10-phenanthroline]",Inhibition of the protease by prolonged treatment,[1]; prolonged treatment (24 h),inhibited
Cc1ccc(S(=O)(=O)NC(Cc2ccccc2)C(=O)CCl)cc1 (stereo not shown) [tosylphenylalanyl chloromethylketone],Inhibition of glycoprotease by conventional protease inhibitors,[1],No inhibition
O=C1O[C@H]([C@@H](O)CO)C(O)=C1O [Ascorbate],inhibition at 11400 µM,[1]; [4],60%
cytochrome c,Hydrolysis of protein by active enzyme fractions,[2],did not hydrolyze
Cc1ccc(S(=O)(=O)NC(CCCCN)C(=O)CCl)cc1 (stereo not shown) [tosyl-lysl chloromethylketone],Inhibition of glycoprotease by conventional protease inhibitors,[1],No inhibition
bovine insulin chain A,Hydrolysis of protein by active enzyme fractions,[2],did not hydrolyze
"CD44/lyaluronic acid receptor: O-sialoglycoprotein cell surface antigen, hyaluronate receptor",Cleavage of cell surface antigen by the glycoprotease,[3],cleaved
CCN1C(=O)C=CC1=O [N-ethylmaleimide],Inhibition of glycoprotease by conventional protease inhibitors,[1],No inhibition
N[C@@H](CC(=O)O)C(=O)O [aspartate],Inhibition of the glycoprotease by anions and acidic amino acids,[1],Some inhibitions
N[C@@H](CCC(=O)O)C(=O)O [glutamate],Inhibition of the glycoprotease by anions and acidic amino acids,[1],Some inhibitions
O=C(O)c1cc[c]([Hg+])cc1.[OH-] [p-hydroxymercuribenzoate],Inhibition of glycoprotease by conventional protease inhibitors,[1],No inhibition
O=C(O)c1cc[c]([Hg][Cl])cc1 [p-chloromercuribenzoate],Inhibition of glycoprotease by conventional protease inhibitors,[1],No inhibition
CD71/transferrin receptor: N-linked glycoprotein which lacks O-sialo-residues,Cleavage of cell surface antigen by the glycoprotease,[3],resistant
[Mg+2] [Mg^2+],Restoration of protease activity by addition of divalent metal ion,[1],failed to restore
same,Increase of activity by addition of divalent metal ion,[1],failed to increase
"CC(C)C[C@H](NP(=O)(O)O[C@H]1O[C@@H](C)[C@H](O)[C@@H](O)[C@H]1O)C(=O)N[C@@H](Cc1c[nH]c2ccccc12)C(=O)O [Phosphoramidon, N-(β-L-rhamnopyranosyl-oxyhydroxyphosphinyl)-L-leucyl-L-tryptophan]",Inhibition of the glycoprotease (in words),[1]; concentration not given,without significant effect
same,inhibition at 900 µM,[1]; [4],95%
O=S(=O)(F)Cc1ccccc1 [phenylmethanesulfonyl-fluoride],Inhibition of glycoprotease by conventional protease inhibitors,[1],No inhibition
[Zn+2] [Zn^2+],Restoration of protease activity by addition of divalent metal ion,[1],failed to restore
same,Increase of activity by addition of divalent metal ion,[1],failed to increase
insulin chain B,Hydrolysis of protein by active enzyme fractions,[2],did not hydrolyze
[Ca+2] [Ca^2+],Restoration of protease activity by addition of divalent metal ion,[1],failed to restore
same,Increase of activity by addition of divalent metal ion,[1],failed to increase
